Experimental data reported in paper PMC4170002 (Journal of immunology (Baltimore, Md. : 1950), 2014).
“And” between values parts separate entries of the source, which are not always exact repeats. Equal entries are not always repeated. “Also recorded” adds a separate entry of the source.

Key:
[1] = system: Splenic CD4+ cells; assay: T helper cell development; assay type: cell-based, mouse; details: 1 μM, 4 days; for IFN-γ production in Th1 cells: Th1 conditions; for IL-4 in Th2 cultures: Th2 conditions; for Foxp3+ cells under Th17-skewing conditions / percent of IL-17+ cells: Th17-skewing conditions; for development of iTregs: iTreg conditions
[2] = biological target: T1, TYK2 (Homo sapiens, UniProt P29597); assay: 33P-ATP kinase assay, TYK2; assay type: biochemical; details: read-out: IC50 TYK2; 33P-ATP assay, 10 μM ATP
[3] = biological target: T2, JAK1 (Homo sapiens, UniProt P23458); assay: 33P-ATP kinase assay, JAK1; assay type: biochemical; details: read-out: IC50 JAK1; 33P-ATP assay, 10 μM ATP
[4] = biological target: T3, JAK3 (Homo sapiens, UniProt P52333); assay: 33P-ATP kinase assay, JAK3; assay type: biochemical; details: read-out: IC50 JAK3; 33P-ATP assay, 10 μM ATP
T3 sequence (P52333 1-1124): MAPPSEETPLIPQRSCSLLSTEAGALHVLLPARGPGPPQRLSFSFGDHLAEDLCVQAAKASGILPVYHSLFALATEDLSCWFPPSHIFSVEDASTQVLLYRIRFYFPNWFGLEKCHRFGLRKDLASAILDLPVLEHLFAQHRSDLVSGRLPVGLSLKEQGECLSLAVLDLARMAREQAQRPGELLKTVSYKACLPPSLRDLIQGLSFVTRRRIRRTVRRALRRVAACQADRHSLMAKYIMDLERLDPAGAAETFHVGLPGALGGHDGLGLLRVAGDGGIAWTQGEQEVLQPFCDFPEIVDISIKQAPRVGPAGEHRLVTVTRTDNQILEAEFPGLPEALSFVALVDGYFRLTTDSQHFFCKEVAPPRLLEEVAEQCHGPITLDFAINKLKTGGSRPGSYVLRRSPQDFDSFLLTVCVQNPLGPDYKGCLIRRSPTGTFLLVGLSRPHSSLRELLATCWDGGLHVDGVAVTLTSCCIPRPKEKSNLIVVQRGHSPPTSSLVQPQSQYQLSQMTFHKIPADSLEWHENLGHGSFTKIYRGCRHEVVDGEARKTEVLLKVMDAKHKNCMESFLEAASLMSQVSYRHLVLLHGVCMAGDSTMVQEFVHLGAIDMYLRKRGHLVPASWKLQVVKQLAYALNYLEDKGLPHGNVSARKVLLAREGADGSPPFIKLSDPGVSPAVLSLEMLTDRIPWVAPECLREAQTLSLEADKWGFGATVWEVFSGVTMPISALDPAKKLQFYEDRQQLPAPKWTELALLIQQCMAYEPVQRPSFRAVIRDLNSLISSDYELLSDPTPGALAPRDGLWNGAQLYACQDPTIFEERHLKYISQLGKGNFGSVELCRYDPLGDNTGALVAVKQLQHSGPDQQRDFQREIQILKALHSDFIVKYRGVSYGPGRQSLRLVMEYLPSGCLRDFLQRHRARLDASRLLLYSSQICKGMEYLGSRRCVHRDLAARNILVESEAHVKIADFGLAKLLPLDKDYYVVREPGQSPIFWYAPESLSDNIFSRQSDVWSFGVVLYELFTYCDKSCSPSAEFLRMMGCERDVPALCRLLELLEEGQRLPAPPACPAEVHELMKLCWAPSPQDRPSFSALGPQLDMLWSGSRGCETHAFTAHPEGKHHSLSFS

[5] = biological target: T1, TYK2; assay: IL-12-induced pSTAT4 in NK-92 cells; assay type: cell-based; details: read-out: IC50 TYK2, pSTAT (cell lines), IL-12, pSTAT4
[6] = biological target: T2, JAK1; assay: IL-6-induced pSTAT3 in TF-1 cells; assay type: cell-based; details: read-out: IC50 JAK1, pSTAT (cell lines), IL-6, pSTAT3
[7] = biological target: T1, TYK2; assay: IL-12-induced pSTAT4 in primary CD4+ cells; assay type: cell-based; details: read-out: IC50 TYK2, pSTAT (primary cells), IL-12, pSTAT4
[8] = biological target: T2, JAK1; assay: IL-6-induced pSTAT3 in primary CD4+ cells; assay type: cell-based; details: read-out: IC50 JAK1, pSTAT (primary cells), IL-6, pSTAT3
[9] = biological target: T3, JAK3; assay: IL-2-induced pSTAT5 in PBMCs; assay type: cell-based; details: read-out: IC50 JAK3, pSTAT (primary cells), IL-2, pSTAT5
[10] = system: IL-22 signaling; assay: IL-22-induced pSTAT3 in HT-29 cells; assay type: cell-based, human
[11] = system: IL-12 signaling; assay: IL-12-induced IFN-γ production in PBMCs; assay type: cell-based; details: human PBMCs, 10 ng/mL IL-12, 24 hours
[12] = system: IFN-α signaling; assay: HEK-BLUE IFN-α/β SEAP reporter assay; assay type: cell-based; details: HEK-BLUE IFN-α/β cells, 200 U IFN-α, 24 hours
[13] = system: CD4+ T cells; assay: CD4+ T cell proliferation; assay type: cell-based, mouse; details: anti-CD28/anti-TCR, 4 days
[14] = Mouse liver microsome stability; assay type: in vitro ADME; details: 0.5 μM
[15] = Caco-2 permeability; assay type: in vitro ADME; details: 5 μM, pH 7.4
[16] = In vivo pharmacokinetics in CD-1 mice; set-up: species or system mouse; details: for Cmax or Co: CD-1 mice
[17] = system: IL-12 signaling in vivo; assay: IL-12/IL-18-induced serum IFN-γ in vivo; set-up: species or system mouse; details: 60 mg/kg, 30 minutes prior to IL-12/IL-18, vs vehicle
[18] = system: IL-22 signaling; assay: IL-22-induced Serum Amyloid A; assay type: in vivo, mouse; details: 50 mg/kg p.o., C57BL/6 mice, 10 μg IL-22, 6 hours, vs vehicle
[19] = system: imiquimod-induced dermatitis; assay: Imiquimod-induced psoriasis-like dermatitis; assay type: in vivo
[20] = system: non-JAK kinases; assay: Kinome analysis; assay type: biochemical; details: 100 nM
[21] = biological target: T1, TYK2; assay: TR-FRET STAT3 phosphorylation assay, TYK2; details: read-out: IC50 TYK2, 10 μM ATP, GFP-STAT3
[22] = biological target: T2, JAK1; assay: TR-FRET STAT3 phosphorylation assay, JAK1; details: read-out: IC50 JAK1, 10 μM ATP, GFP-STAT3
[23] = biological target: T3, JAK3; assay: TR-FRET STAT3 phosphorylation assay, JAK3; details: read-out: IC50 JAK3, 10 μM ATP, GFP-STAT3
[24] = 50 mg/kg p.o. twice daily, back skin
[25] = 50 mg/kg, qPCR, vs wild type and TYK2 mutant mice

T1 sequence (P29597 whole entry): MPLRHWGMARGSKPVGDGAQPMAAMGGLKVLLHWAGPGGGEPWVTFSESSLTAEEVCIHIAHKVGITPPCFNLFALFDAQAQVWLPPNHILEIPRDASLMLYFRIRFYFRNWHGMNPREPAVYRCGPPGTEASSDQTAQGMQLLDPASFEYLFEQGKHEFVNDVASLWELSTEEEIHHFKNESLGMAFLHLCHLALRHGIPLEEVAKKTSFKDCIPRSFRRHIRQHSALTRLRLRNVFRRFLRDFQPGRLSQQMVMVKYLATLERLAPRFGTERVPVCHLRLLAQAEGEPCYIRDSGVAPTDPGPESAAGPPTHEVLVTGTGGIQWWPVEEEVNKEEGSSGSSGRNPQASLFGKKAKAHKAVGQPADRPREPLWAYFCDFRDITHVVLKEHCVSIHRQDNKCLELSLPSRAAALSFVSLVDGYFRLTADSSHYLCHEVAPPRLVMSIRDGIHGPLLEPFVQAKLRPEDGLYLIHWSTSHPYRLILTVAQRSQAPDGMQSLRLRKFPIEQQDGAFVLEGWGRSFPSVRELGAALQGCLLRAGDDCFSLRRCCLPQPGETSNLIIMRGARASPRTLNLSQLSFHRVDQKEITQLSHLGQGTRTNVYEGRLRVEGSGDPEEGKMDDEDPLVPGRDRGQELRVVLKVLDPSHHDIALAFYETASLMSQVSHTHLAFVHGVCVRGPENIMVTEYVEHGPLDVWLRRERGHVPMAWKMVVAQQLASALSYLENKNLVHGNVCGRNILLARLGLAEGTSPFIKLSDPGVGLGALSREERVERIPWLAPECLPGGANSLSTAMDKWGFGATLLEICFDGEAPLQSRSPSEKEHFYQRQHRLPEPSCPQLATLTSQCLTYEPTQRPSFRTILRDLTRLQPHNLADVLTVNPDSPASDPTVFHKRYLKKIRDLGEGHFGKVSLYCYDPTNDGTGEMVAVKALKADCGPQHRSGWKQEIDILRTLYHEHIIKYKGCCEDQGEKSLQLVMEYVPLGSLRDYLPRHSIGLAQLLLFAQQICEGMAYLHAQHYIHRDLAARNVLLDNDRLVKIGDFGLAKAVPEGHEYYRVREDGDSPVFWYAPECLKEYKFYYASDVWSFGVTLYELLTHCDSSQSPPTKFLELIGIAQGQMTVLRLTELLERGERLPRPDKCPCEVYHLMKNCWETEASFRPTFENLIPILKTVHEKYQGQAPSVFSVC
T2 sequence (P23458 whole entry): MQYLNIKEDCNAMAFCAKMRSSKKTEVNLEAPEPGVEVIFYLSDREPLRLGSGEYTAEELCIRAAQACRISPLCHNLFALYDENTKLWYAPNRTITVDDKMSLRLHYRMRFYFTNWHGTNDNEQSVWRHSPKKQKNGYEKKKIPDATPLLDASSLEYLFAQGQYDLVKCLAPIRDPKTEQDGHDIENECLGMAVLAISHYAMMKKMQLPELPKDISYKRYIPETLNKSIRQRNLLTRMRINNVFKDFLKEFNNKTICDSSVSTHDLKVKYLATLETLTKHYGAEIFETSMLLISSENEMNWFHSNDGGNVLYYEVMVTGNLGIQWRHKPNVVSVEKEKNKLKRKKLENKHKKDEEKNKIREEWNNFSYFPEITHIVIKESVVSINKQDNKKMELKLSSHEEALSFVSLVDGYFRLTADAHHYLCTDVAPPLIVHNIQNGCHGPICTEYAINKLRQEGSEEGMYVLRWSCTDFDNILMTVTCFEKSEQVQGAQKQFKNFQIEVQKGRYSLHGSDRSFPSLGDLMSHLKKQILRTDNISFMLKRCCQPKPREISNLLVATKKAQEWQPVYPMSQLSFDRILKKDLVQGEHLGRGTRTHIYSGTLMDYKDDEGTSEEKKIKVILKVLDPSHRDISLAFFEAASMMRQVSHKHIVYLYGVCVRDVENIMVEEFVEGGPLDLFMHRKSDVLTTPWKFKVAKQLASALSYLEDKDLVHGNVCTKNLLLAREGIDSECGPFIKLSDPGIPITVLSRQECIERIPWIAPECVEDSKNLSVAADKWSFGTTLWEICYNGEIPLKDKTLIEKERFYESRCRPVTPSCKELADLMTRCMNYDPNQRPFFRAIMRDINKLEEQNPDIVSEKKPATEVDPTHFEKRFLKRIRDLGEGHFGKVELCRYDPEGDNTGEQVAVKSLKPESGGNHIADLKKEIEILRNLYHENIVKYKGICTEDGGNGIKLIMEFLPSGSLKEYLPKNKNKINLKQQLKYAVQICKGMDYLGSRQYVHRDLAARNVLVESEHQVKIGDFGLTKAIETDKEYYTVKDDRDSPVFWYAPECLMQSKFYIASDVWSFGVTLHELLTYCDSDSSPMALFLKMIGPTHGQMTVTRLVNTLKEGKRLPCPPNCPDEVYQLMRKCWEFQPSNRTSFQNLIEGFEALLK

C[C@@H]1CCN(C(=O)CC#N)C[C@@H]1N(C)c1ncnc2[nH]ccc12 [Tofacitinib, reference compound]
IFN-γ production in Th1 cells [1]: potently blocked IFN-γ production | IL-4 in Th2 cultures [1]: capable of reducing IL-4 | Foxp3+ cells under Th17-skewing conditions [1]: no effect on Th17 skewing or change in the number of Foxp3+ cells | percent of IL-17+ cells [1]: no effect on Th17 skewing | development of iTregs [1]: significantly reduced iTreg development

NC(=O)c1nc(-c2c(F)cccc2Cl)oc1Nc1ccc(C(=O)N2CCOCC2)cc1 [SAR-20347]
IC50 [2]: 0.0006 ± 0.0001 µM | IC50 [3]: 0.023 ± 0.019 µM | IC50 [4]: 0.041 ± 0.011 µM | IC50 [5]: 0.126 µM | IC50 [6]: 0.345 µM | IC50 [7]: 0.107 µM | IC50 [8]: 0.423 µM | IC50 [9]: 1.61 µM | inhibition of STAT3 phosphorylation ([10]; 10 μM): 94% | IC50 ([10]; read-out: IC50 IL-22-induced pSTAT3, 10 ng/mL IL-22, 15 minutes): 0.148 µM | inhibition of IL-12 induced IFN-γ production [11]: dose-dependent inhibition of IFN-γ production; also recorded: complete inhibition | inhibition of SEAP production [12]: dose-dependently inhibited the production of SEAP | IFN-γ production in Th1 cells [1]: potently blocked IFN-γ production | IL-4 in Th2 cultures [1]: capable of reducing IL-4 | Foxp3+ cells under Th17-skewing conditions [1]: dramatic increase in Foxp3+ cells | percent of IL-17+ cells [1]: reduces the percent of IL-17+cells | development of iTregs [1]: did not alter the development of iTregs | CD4+ T cell proliferation [13]: inhibited proliferation to a comparable extent | doses significantly decreasing proliferation compared to 0 μM (DMSO) ([13]; two-way ANOVA): ≥ 0.315 µM | clearance rate in mouse liver microsomes [14]: 26 µL/min/mg | half-life in mouse liver microsomes [14]: 52.7 min | Caco-2 AB: BA [15]: 1.3 | Caco-2 permeability [15]: good permeability | AUC0-8h ([16]; 1 mg/kg (i.v.)): 305 ng/h/mL | Cl ([16]; 1 mg/kg (i.v.)): 52 mL/min/kg and 52.1 mL/min/kg | T1/2 ([16]; 1 mg/kg (i.v.)): 162 min | Cmax or Co ([16]; 1 mg/kg (i.v.)): 433 ng/mL | AUC0-8h ([16]; 10 mg/kg (p.o.)): 2131 ng/h/mL | F ([16]; 10 mg/kg (p.o.)): 69.8% | T1/2 ([16]; 10 mg/kg (p.o.)): 144 min | Tmax ([16]; 10 mg/kg (p.o.)): 24 min | Cmax or Co ([16]; 10 mg/kg (p.o.)): 1343 ng/mL | AUC0-8h ([16]; 50 mg/kg (p.o.)): 18740 ng/h/mL | T1/2 ([16]; 50 mg/kg (p.o.)): 168 min | Tmax ([16]; 50 mg/kg (p.o.)): 30 min | Cmax or Co ([16]; 50 mg/kg (p.o.)): 6273 ng/mL | maximum serum concentration (Tmax) ([16]; mice): 30 min | inhibition of production of IFN-γ in the serum [17]: 91% | decrease of SAA levels [18]: 45% | gross toxicity ([19]; 50 mg/kg p.o. twice daily): no gross toxicity | Ki67 staining [19, 24]: significantly reduced | histological score [19, 24]: significantly reduced | keratinocyte cell numbers [19, 24]: significantly reduced | scaling and redness (clinical score) ([19]; 50 mg/kg p.o. twice daily, vs TYK2 mutant or vehicle-treated wild type mice): markedly reduced scaling and redness | IL-2 expression levels in the skin ([19]; 50 mg/kg, qPCR): did not affect | IL-10 expression levels in the skin ([19]; 50 mg/kg, qPCR): did not affect | S100A8 gene expression in the skin ([19]; 50 mg/kg, qPCR): significantly decreased | S100A9 gene expression in the skin ([19]; 50 mg/kg, qPCR): significantly decreased | defensin β1 gene expression in the skin ([19]; 50 mg/kg, qPCR): significantly decreased | IL-6 mRNA expression in the skin [19, 25]: significantly reduced expression | IL-17 mRNA expression in the skin [19, 25]: significantly reduced expression | IL-20 mRNA expression in the skin [19, 25]: significantly reduced expression | IL-22 mRNA expression in the skin [19, 25]: significantly reduced expression | IL-23 mRNA expression in the skin [19, 25]: significantly reduced expression | TNF mRNA expression in the skin [19, 25]: significantly reduced expression | IL-17 production (average signal intensity) ([19]; 50 mg/kg, skin IHC): significantly reduced IL-17 production | Vγ3 expression (average signal intensity) ([19]; 50 mg/kg, skin IHC): significantly lower | number of CD4+ cells in skin ([19]; 50 mg/kg, skin IHC): not affected | inhibitory activity towards non-JAK kinases [20]: comparable to the previously established values for tofacitinib and ruxolitinib | IC50 [21]: 0.013 ± 0.003 µM | IC50 [22]: 0.059 ± 0.043 µM | IC50 [23]: 1.44 ± 0.63 µM
